Patent publication US20030083250A1, “Anti-tumor chemotherapy by administration of cyclophosphamide and erythropoeitin” (priority 2001, published 2003)
Entries after “also recorded” stand apart in the source; their conditions may differ.

Assays:
Male Sprague-Dawley rats = test: Blood cell parameters (automated hematology analyzer) in rats with carboplatin-induced anemia, with or without rHuEPO; type: in vivo, rat; settings: for CHb (hemoglobin concentration): day of cyclophosphamide treatment (Day 5 after tumor implantation), carboplatin 50 mg/kg i.v. on Day -4, rHuEPO 1000 IU/kg s.c. three times per week
Experimental: (§1) Male Sprague-Dawley rats (Charles River Wiga, Sulzfeld, Germany; body weight 100 to 160 g) housed in our animal care facility were used in the study. Animals were allowed access to food and acidified water ad libitum before and throughout the investigation. All experiments had previously been approved by the regional animal ethics committee and were conducted in accordance with the German Law for Animal Protection and the UKCCCR Guidelines [United Kingdom Coordinating Committee on Cancer Research (UKCCCR) guidelines for the welfare of animals in experimental neoplasia (2 nd edit). Br. J. Cancer, (1998) 77:1-10].
(§2) Prolonged anemia was induced by a single injection of carboplatin (Sigma-Aldrich, Steinheim, Germany) at a dose of 50 mg/kg body weight (dissolved in isotonic saline at a concentration of 20 mg/ml) into the tail vein four days before tumor implantation.
(§3) Recombinant human erythropoietin (epoetin alpha, ERYPO 4000®; Janssen-Cilag, Neuss, Germany) in isotonic NaCl solution was administered (1000 IU/kg) three times per week over sixteen days by s.c. injection starting eleven days before tumor implantation. Control animals received equivalent volumes of the solvent (0.5 ml/ kg).
Besides tumor growth, blood cell parameters were assessed using a multi-parameter, automated hematology analyzer (Ac-T8; Beckman-Coulter, Krefeld, Germany) whereby erythrocyte, white blood cell and platelet counts together with the mean cell volume (MCV) were measured by an impedance technique and the hemoglobin concentration by a photometric method. In addition, the analyzer uses the measured values to calculate several other parameters (e.g., hematocrit, mean corpuscular hemoglobin content [MCH] and mean corpuscular hemoglobin concentration [MCHC]). All measurements were performed using a sample of venous blood (20 μl) taken from a tail vein.
(§4) Results are expressed as means±standard error of the mean (SEM). Differences between the groups were assessed by the two-tailed Wilcoxon test for unpaired samples. The significance level was set at α=5% for all comparisons. For characterizing the effect of chemotherapy on tumor growth, the growth delay induced by cyclophosphamide was calculated.

DS-sarcoma = test: Growth of subcutaneous DS-sarcomas in rats (tumor volume, volume doubling time, growth delay after cyclophosphamide); type: in vivo, rat; settings: for volume doubling time / impact on tumor growth rate per se: tumors not treated with cyclophosphamide; for impact on tumor growth rate per se: carboplatin four days before implantation, rHuEPO 1000 IU/kg three times per week; for volume doubling time during the regrowth period: after cyclophosphamide; for growth delay following chemotherapy: at the 1.3 ml tumor volume level, cyclophosphamide 60 mg/kg i.p. Day 5
Experimental: as §1
Solid DS-sarcomas were induced by injecting DS-sarcoma cells (0.4 ml approximately 10^4 cells/μl) subcutaneously into the hind food dorsum. […] Tumor volumes were determined by measuring the three orthogonal diameters of the tumor and using an ellipsoid approximation with the formula: V=d1×d2×d3×π/6. From the volume growth curves the volume doubling time was calculated during exponential tumor growth.
as §2, §3
Animals treated with equivalent volumes of the solvent (isotonic saline 6 ml/kg) served as controls.
Group 1 (non-anemic): Animals received cyclophosphamide on Day 5 after tumor implantation.
Group 2 (anemic): Animals treated for four days before tumor implantation with carboplatin for anemia induction. Cyclophosphamide was administered on Day 5 after implantation.
Group 3 (anemic, rHuEPO-treated): Animals treated with rHuEPO three times per week from eleven days before tumor implantation and up until the day of cyclophosphamide application. Carboplatin (for anemia induction) was administered on Day −4 and cyclophosphamide was applied on Day 5.
Controls for all three experimental groups received equivalent volumes of the solvent instead of cyclophosphamide on Day 5 after tumor implantation.
as §4

[1] = tested on: FSaIIC Murine Fibrosarcoma; settings: experimental sarcomas of mice; cited from earlier work
anemic cancer patients = settings: 150 IU/kg t.i.w. vs placebo; after the first month of therapy; platinum or non-platinum chemotherapy; cited from earlier work
[2] = tested on: human ovarian cancer xenographs; settings: EPO alone (control group); cited from earlier work
experimental tumours = settings: in vivo; cited from earlier work
experimental tumors = settings: after correcting anemia; 76% in moderate anemia, 21% before; cited from earlier work
[3] = day of cyclophosphamide treatment, mean ± SEM

N.N.O=C([O-])C1(C(=O)[O-])CCC1.[Pt+2] [carboplatin]
CHb (hemoglobin concentration) (Male Sprague-Dawley rats; mean ± SEM): 98 g/L
CHb (hemoglobin concentration) (Male Sprague-Dawley rats; mean ± SEM, listed as CARBOPLATIN): 98 ± 3 g/L
Hematocrit (Male Sprague-Dawley rats; [3]): 28 ± 1%
Mean Corpuscular Hb Concentration (MCHC) (Male Sprague-Dawley rats; [3]): 348 ± 5 g/L
Mean Corpuscular Hemoglobin (MCH) (Male Sprague-Dawley rats; [3]): 22 ± 1 pg
Mean Corpuscular Volume (MCV) (Male Sprague-Dawley rats; [3]): 63 ± 1 fL
RBC count (Male Sprague-Dawley rats; [3]): 4.5 ± 0.2 10^6/μl
mean cHb (Male Sprague-Dawley rats; nine days after a single dose of carboplatin 50 mg/kg i.v., start approximately 130 g/l): about 100 g/l
volume doubling time (DS-sarcoma): approximately 1.8 days
impact on tumor growth rate per se (DS-sarcoma): does not affect the growth of DS sarcomas; also recorded: no impact per se on the growth rate of the tumors; also recorded: no effect on the growth rate of DS-sarcomas
cell kill in oxygenated versus hypoxic tumor areas [1]: more pronounced cell kill

O=P1(N(CCCl)CCCl)NCCCO1 (stereo not drawn) [cyclophosphamide]
volume doubling time during the regrowth period (DS-sarcoma; anemic group): 4.0 days
volume doubling time during the regrowth period (DS-sarcoma; non-anemic group): 4.6 days
growth delay following chemotherapy (DS-sarcoma; anemic (carboplatin) group): 8.6 days
growth delay following chemotherapy (DS-sarcoma; non-anemic group): approximately 13.3 days
growth delay (DS-sarcoma; single dose 60 mg/kg i.p., stated in the methods, not curative): approximately eight to ten
cell kill in oxygenated versus hypoxic tumor areas [1]: more pronounced cell kill

N[C@@H](Cc1ccc(N(CCCl)CCCl)cc1)C(=O)O [melphalan]
cell kill in oxygenated versus hypoxic tumor areas [1]: more pronounced cell kill

rHuEPO: Recombinant human erythropoietin (epoetin alpha, ERYPO 4000; Janssen-Cilag)
cHb (Male Sprague-Dawley rats; continuous rHuEPO treatment in otherwise untreated rats, within one week): 153 g/L
CHb (hemoglobin concentration) (Male Sprague-Dawley rats; mean ± SEM): 137 g/L
effect on carboplatin-induced anemia at the time of chemotherapy (Male Sprague-Dawley rats; rHuEPO for approximately one week prior to carboplatin application): prevention (or reversal) of the carboplatin-induced anemia
effect of reversing anemia on cytotoxicity of cyclophosphamide chemotherapy (DS-sarcoma; DS sarcomas, anemia cHb=98 g/l): significantly increases the cytotoxicity of this chemotherapy
volume doubling time during the regrowth period (DS-sarcoma; rHuEPO-treated animals): 4.3 days
growth delay following chemotherapy (DS-sarcoma; rHuEPO-treated group (carboplatin + rHuEPO)): approximately 13.3 days
volume doubling time (DS-sarcoma): approximately 1.8 days
impact on tumor growth rate per se (DS-sarcoma): no impact per se on the growth rate of the tumors; also recorded: no impact on the tumor growth per se
effect on hematocrit and transfusion requirements (anemic cancer patients): increase hematocrit and decrease transfusion requirements
changes in tumor growth [2]: no changes in tumor growth
effect of correction of anemia on radiosensitivity (experimental tumours): able to improve the radiosensitivity
fraction of hypoxic pO2 values ≦2.5 mmHg (experimental tumors): 55%
